Common to all, as to assay type: cell-based
One experiment addresses T1, human TLR8 (Homo sapiens, UniProt Q9NR97).
T1 construct: host or cells: HEK-Blue cells (HEK293-derived reporter line)
T1 sequence (Q9NR97 27-1041): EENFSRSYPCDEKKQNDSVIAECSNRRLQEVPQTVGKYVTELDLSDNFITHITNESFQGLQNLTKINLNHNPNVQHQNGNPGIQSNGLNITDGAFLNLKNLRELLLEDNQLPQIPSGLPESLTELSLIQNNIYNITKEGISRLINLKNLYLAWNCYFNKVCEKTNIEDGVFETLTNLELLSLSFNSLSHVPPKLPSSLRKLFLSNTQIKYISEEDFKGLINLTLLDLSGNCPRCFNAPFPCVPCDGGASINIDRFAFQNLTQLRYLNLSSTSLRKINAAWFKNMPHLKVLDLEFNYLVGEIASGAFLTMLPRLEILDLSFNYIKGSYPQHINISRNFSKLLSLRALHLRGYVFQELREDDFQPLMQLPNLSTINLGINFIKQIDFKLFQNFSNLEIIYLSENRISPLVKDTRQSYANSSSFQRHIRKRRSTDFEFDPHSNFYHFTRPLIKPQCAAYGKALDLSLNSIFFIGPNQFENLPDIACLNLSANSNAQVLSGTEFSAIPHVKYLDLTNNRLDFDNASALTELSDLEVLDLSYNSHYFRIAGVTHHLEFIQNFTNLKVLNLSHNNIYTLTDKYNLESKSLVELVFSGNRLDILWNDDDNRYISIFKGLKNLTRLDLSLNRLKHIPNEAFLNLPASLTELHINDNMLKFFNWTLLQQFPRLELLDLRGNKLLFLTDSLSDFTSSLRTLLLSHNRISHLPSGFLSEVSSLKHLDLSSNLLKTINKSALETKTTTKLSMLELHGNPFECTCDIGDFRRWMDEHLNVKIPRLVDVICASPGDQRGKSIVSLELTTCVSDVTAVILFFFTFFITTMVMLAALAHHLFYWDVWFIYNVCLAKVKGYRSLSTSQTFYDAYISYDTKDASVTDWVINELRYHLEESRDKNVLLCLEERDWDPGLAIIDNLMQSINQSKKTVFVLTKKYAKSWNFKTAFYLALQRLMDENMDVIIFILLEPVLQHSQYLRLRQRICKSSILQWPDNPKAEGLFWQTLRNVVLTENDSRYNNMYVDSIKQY
Put plainly: TLR8 inhibition reporter assay (HEK-Blue cells, SEAP reporter, R848 stimulation). The following applies: HEK-Blue cells overexpressing human TLR8, SEAP reporter, R848 15.9 μM. A digest of the protocol:
(§1)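 Cells seeded per well (15000 TLR7, 20,000 TLR8, 25,000 TLR9); compound added over 0.05 nM–50 μM for 30 min at room temperature; agonist added (TLR7 gardiquimod 7.5 μM, TLR8 R848 15.9 μM, TLR9 ODN2006 5 nM); 22 h at 37 °C; SEAP measured; percent inhibition calculated.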
(In general: Reporter assays use an easily measured gene product as a stand-in for the process of interest.)

The next experiment addresses T2, human TLR7 (Homo sapiens, UniProt Q9NYK1).
T2 construct: host or cells: HEK-Blue cells (HEK293-derived reporter line)
T2 sequence (Q9NYK1 27-1049): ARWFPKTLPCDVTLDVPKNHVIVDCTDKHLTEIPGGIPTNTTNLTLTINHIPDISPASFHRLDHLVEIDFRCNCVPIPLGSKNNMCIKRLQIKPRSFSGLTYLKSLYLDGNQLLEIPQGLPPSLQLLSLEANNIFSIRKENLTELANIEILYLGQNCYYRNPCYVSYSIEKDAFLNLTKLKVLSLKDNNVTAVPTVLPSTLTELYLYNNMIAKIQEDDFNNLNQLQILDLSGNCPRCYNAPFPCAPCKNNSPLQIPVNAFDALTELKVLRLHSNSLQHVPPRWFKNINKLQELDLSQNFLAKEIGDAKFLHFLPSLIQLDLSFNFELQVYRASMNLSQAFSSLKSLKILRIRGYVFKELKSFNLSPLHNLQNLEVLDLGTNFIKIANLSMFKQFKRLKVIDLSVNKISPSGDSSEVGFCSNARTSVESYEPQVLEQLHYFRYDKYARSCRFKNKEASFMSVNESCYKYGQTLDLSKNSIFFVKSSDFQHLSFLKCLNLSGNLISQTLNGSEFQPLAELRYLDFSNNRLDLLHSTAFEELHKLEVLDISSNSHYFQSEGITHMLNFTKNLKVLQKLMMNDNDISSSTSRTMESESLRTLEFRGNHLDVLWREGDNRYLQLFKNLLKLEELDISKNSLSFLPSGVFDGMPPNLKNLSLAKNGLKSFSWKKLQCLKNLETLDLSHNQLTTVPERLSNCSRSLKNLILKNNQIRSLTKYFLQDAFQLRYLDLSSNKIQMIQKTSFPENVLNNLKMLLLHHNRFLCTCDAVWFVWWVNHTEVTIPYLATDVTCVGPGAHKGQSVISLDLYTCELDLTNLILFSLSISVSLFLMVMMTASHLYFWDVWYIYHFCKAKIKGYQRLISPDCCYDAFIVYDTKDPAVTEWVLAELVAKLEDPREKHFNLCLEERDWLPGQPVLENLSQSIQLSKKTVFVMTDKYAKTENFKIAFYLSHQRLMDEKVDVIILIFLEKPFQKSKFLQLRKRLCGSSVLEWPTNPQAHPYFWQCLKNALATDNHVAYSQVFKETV
The experiment is described as follows: TLR7 inhibition reporter assay (HEK-Blue cells, SEAP reporter, gardiquimod stimulation). As to conditions: HEK-Blue cells overexpressing human TLR7, SEAP reporter, gardiquimod 7.5 μM. A digest of the protocol: as §1

The next experiment deals with T3, human TLR9 (Homo sapiens, UniProt Q9NR96).
T3 construct: host or cells: HEK-Blue cells (HEK293-derived reporter line)
T3 sequence (Q9NR96 26-1032): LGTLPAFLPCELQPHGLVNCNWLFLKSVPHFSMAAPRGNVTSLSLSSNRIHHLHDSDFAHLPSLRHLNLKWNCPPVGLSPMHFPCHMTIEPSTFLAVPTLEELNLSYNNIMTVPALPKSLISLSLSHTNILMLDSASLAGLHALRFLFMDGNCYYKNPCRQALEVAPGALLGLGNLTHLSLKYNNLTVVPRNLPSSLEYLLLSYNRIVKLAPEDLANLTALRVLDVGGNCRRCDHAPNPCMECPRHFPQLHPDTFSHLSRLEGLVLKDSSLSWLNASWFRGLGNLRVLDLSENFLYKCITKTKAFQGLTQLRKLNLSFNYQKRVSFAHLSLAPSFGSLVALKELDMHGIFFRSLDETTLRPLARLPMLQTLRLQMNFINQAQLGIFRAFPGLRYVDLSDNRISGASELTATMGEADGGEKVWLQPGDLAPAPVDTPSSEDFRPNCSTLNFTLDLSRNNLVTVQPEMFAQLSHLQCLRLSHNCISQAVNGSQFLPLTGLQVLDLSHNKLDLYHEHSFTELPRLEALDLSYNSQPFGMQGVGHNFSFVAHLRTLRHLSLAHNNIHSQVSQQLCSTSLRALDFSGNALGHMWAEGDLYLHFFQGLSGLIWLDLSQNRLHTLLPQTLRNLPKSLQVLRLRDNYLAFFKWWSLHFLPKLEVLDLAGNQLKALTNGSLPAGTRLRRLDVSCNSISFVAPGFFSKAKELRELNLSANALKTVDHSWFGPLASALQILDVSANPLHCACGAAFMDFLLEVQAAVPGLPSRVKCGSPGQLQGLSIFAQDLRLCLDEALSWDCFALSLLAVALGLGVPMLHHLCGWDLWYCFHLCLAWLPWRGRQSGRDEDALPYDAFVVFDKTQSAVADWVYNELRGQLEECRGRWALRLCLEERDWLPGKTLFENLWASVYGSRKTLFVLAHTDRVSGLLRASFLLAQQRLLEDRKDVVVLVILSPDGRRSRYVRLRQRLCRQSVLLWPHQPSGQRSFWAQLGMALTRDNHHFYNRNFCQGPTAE
Put plainly: TLR9 inhibition reporter assay (HEK-Blue cells, SEAP reporter, ODN2006 stimulation). The following applies: HEK-Blue cells overexpressing human TLR9, SEAP reporter, ODN2006 5 nM. In a few lines: as §1

Usually IC50 stands for the concentration needed to halve the response being measured. `CC(C)c1c(-c2ccn3nccc3n2)[nH]c2ccc(C3CCNCC3)cc12` [Example 193, 5-(3-isopropyl-5-(piperidin-4-yl)-1H-indol-2-yl)pyrazolo[1,5-a]pyrimidine]: the IC50 against human TLR8 lay within 100 to 1000 nM; at human TLR7 it was 100 to 1000 nM; against human TLR9 it was 1000 to 50000 nM.

Take `CC(C)c1c(-c2cnc3cnccn23)[nH]c2ccc(C3CCNCC3)cc12` [Example 194, 3-(3-isopropyl-5-(piperidin-4-yl)-1H-indol-2-yl)imidazo[1,2-a]pyrazine]: the IC50 against human TLR8 fell in the range of 1000 to 50000 nM; against human TLR7, 1000 to 50000 nM; on human TLR9, 100 to 1000 nM.

For `CC(C)c1c(-c2nc3cnccn3n2)[nH]c2ccc(C3CCNCC3)cc12` [Example 195, 2-(3-isopropyl-5-(piperidin-4-yl)-1H-indol-2-yl)-[1,2,4]triazolo[1,5-a]pyrazine], the 50% inhibitory concentration (IC50) on human TLR8 was below 100 nM; on human TLR7 it was 1000 to 50000 nM; on human TLR9, 1000 to 50000 nM.

Take `CC(C)c1c(-c2cccn3ncnc23)[nH]c2ccc(C3CCNCC3)cc12` [Example 196, 8-(3-isopropyl-5-(piperidin-4-yl)-1H-indol-2-yl)-[1,2,4]triazolo[1,5-a]pyridine]: the results for the IC50 on human TLR8, against human TLR7 and at human TLR9 were below 100 nM, below 100 nM and 1000 to 50000 nM, respectively.

On to `CC(C)c1c(-c2ccn3ncnc3c2)[nH]c2ccc(C3CCNCC3)cc12` [Example 197, 7-(3-isopropyl-5-(piperidin-4-yl)-1H-indol-2-yl)-[1,2,4]triazolo[1,5-a]pyridine], for which the IC50 on human TLR8 is below 100 nM; on human TLR7 it was below 100 nM; against human TLR9, 1000 to 50000 nM.

For `CCc1c(-c2ccn3ncnc3c2)[nH]c2ccc(C3CCNCC3)cc12` [Example 198, 7-(3-ethyl-5-(piperidin-4-yl)-1H-indol-2-yl)-[1,2,4]triazolo[1,5-a]pyridine], the IC50 on human TLR8 was 100 to 1000 nM; at human TLR7, below 100 nM; against human TLR9, 1000 to 50000 nM.

Turning to `CC(C)c1c(-c2ccn3c(=O)[nH]nc3c2)[nH]c2ccc(C3CCNCC3)cc12` [Example 199, 7-(3-isopropyl-5-(piperidin-4-yl)-1H-indol-2-yl)-[1,2,4]triazolo[4,3-a]pyridin-3(2H)-one], the values for the IC50 against human TLR8, on human TLR7 and against human TLR9 were below 100 nM, below 100 nM and 100 to 1000 nM, respectively.

`CC(C)c1c(-c2cnc3nccn3c2)[nH]c2ccc(C3CCNCC3)cc12` [Example 200, 6-(3-isopropyl-5-(piperidin-4-yl)-1H-indol-2-yl)imidazo[1,2-a]pyrimidine]: the IC50 against human TLR8, at human TLR7 and against human TLR9 was 100 to 1000 nM in each case.

For `CCc1c(-c2ccn3ccnc3c2)[nH]c2ccc(C3CCNCC3)cc12` [Example 202, 7-(3-ethyl-5-(piperidin-4-yl)-1H-indol-2-yl)imidazo[1,2-a]pyridine], the IC50 against human TLR8 lay in the range of 1000 to 50000 nM; at human TLR7, 1000 to 50000 nM; against human TLR9 it was 100 to 1000 nM.

In the case of `CC(C)c1c(-c2ccn3ccnc3c2)[nH]c2ccc(C3CCNCC3)cc12` [Example 203, 7-(3-isopropyl-5-(piperidin-4-yl)-1H-indol-2-yl)imidazo[1,2-a]pyridine], the IC50 was below 100 nM against human TLR8, below 100 nM against human TLR7 and 100 to 1000 nM on human TLR9.

On to `CCc1c(-c2ccn3cnnc3c2)[nH]c2ccc(C3CCNCC3)cc12` [Example 204, 7-(3-ethyl-5-(piperidin-4-yl)-1H-indol-2-yl)-[1,2,4]triazolo[4,3-a]pyridine], for which the IC50 at human TLR8, on human TLR7 and against human TLR9 was 100 to 1000 nM each time.

With `FC(F)Cc1c(-c2ccnc3[nH]ccc23)[nH]c2ccc(C3CCNCC3)cc12` [Example 205, 4-(3-(2,2-difluoroethyl)-5-(piperidin-4-yl)-1H-indol-2-yl)-1H-pyrrolo [2,3-b]pyridine], the values for the IC50 against human TLR8, at human TLR7 and on human TLR9 were below 100 nM, below 100 nM and 100 to 1000 nM, respectively.
